Paper PMC12508057, “Discovery of ETI41 and ETI60: novel selective endosomal Toll-like receptor inhibitors for the treatment of autoimmune diseases” (Experimental & Molecular Medicine, 2025)
Where two headings read alike, the source gives them in different places.

Columns and labels:
[1] = target: T1, human TLR7 (Homo sapiens, UniProt Q9NYK1); test: SPR binding to TLR7; details: for SPR binding to TLR7: neutral pH 7.4 (early endosome)
T1 construct: Fc; purchased R&D Systems
T1 sequence (Q9NYK1 27-839 limits assumed): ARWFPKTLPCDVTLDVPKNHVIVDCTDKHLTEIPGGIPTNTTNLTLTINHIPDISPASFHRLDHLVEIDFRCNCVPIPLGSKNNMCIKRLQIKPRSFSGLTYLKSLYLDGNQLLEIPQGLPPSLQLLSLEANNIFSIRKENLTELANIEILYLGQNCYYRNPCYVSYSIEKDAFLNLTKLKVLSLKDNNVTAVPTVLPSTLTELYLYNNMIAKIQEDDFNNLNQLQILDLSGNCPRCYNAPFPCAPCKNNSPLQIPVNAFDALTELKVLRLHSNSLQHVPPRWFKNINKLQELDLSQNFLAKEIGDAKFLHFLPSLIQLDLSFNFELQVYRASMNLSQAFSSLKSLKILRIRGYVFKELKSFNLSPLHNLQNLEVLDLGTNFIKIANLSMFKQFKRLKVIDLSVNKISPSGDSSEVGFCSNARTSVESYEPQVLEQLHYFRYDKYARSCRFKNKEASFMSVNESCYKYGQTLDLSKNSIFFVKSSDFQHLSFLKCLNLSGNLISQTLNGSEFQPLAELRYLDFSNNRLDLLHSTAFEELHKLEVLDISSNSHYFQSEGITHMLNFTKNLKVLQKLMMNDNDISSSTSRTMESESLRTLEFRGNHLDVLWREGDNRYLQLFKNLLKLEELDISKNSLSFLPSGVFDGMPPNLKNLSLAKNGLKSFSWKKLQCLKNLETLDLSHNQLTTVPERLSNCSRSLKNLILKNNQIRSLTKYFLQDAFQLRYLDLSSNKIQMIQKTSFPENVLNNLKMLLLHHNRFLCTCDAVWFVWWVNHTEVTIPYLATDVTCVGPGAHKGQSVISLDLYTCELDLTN
Method: Surface plasmon resonance (SPR) analysis was conducted using an SR7500DC SPR System (Reichert) with a CMDH chip for human TLR7 and murine TLR9 (R&D Systems) and a Biacore T200 platform (Cytiva) with a CM5 chip for TLR9–ODN binding. The running buffer contained 0.5% DMSO and phosphate-buffered saline, and 50 mM NaOH was used for regeneration. ETI series compounds were serially diluted from 500 μM and tested for binding affinity. Binding curves were analyzed using Scrubber2 and Biacore T200 evaluation softwares. The dissociation constants (KD) were calculated as KD = kd/ka.
SPR confirmed the binding mechanisms of ETI41 and ETI60 with TLR7 and TLR9, respectively, under three conditions: (a) early endosome (pH 7.4), (b) late endosome without CpG (pH 5.5) and (c) late endosome with CpG (pH 5.5). (a) Both ETI41 and ETI60 were measured for parameters indicating binding affinity, including the KD value presented in Table 3, and were further analyzed under conditions (b) and (c), depending on the presence or absence of ligand, to explain the binding mechanism occurring in TLR9.

[2] = test system: endosomal and lysosomal pH; test: pH assay of endosomes and lysosomes in RAW 264.7; format: cell-based, mouse
Method: RAW 264.7 cells were seeded into black 96-well plates at […] cells per well and incubated overnight. After washing, the cells were treated with phenol-free RPMI 1640 medium (Gibco). Following 30 min of treatment with ETI41 or ETI60, cells were incubated with 20 µg/ml of pHrodo Red Dextran (Thermo Fisher Scientific) or 10 µM LysoSensor Yellow/Blue DND-160 (Thermo Fisher Scientific). Fluorescence was measured using a BioTek Synergy HTX Multimode Microplate Reader. Data were analyzed using the BioTek Gen5 software.
Fig. 3 Binding mechanism of ETI41 and ETI60 with TLR7 and TLR9. a ETI41 and ETI60 bind to the extracellular domain of TLR7. b Detailed intermolecular interactions ofETI41 and ETI60 are shown with the key residues of TLR7. c ETI41 and ETI60 bind to the extracellular domain of TLR9. d Intermolecular interactions of ETI41 and ETI60 with the key residues of TLR9. The asterisk indicates chain A of TLR7 and TLR9. ETI41 and ETI60 are depicted in ball-and-stick models. Bonds are represented by lines, with distances measured in ångström (Å) units. […] Data presented are from three independent experiments (n = 3), and statistical differences between the induced case and other cases were analyzed and verified using a one-tailed Student’s t-test (*P < 0.05, **P < 0.01, ***P < 0.001). […]

Cc1cc2c(N)c3c(nc2n1CCCN(C)C)CCCCCC3 [ETI41]
Kd [1]: 0.54 mM | kd ([1]; Fc-TLR7, pH 7.4): 0.21 s⁻¹ | SPR binding to TLR7 [1]: clear binding affinity | kon ([1]; pH 7.4, read-out: ka): 400 M⁻¹ s⁻¹ | pH of endosomes containing TLR3, TLR7, TLR8 and TLR9 [2]: did not significantly affect

COc1ccc2c3c(N)c4c(nc3n(CCCN(C)C)c2c1)CCCC4 [ETI60]
kd ([1]; Fc-TLR7, pH 7.4): 0.124 s⁻¹ | Kd ([1]; Fc-TLR7, pH 7.4, read-out: KD): 6 mM | kon ([1]; Fc-TLR7, pH 7.4, read-out: ka): 20 M⁻¹ s⁻¹ | SPR binding to TLR7 [1]: clear binding affinity | pH of endosomes containing TLR3, TLR7, TLR8 and TLR9 [2]: did not significantly affect
